Article PMC10781878, “AMWEst, a new thermostable and detergent-tolerant esterase retrieved from the Albian aquifer” (Applied Microbiology and Biotechnology, 2024)

Test system: T1, AMWEst
T1 construct: primer keeps native start codon (predicted signal peptide 1-22, LHA-EQ); ultrafiltered extracellular medium, not purified; about 50 kDa on SDS-PAGE, probably N-glycosylated
Assay: spectrophotometric p-nitrophenol release at […] nm, Lineweaver-Burk plot
Assay type: biochemical, uncultured bacterium
Conditions: 50 mM Tris/HCl pH 8.5, 40 mM CaCl2, 60 °C, 20 min; substrate 0.1-10 mM; concentrated extracellular medium of recombinant yeast

- Km: 1020 µM
SMILES: CCCCCCCCCCCC(=O)Oc1ccc([N+](=O)[O-])cc1 [pNP12, p-nitrophenyl laurate]
